Measured values taken from patent US20160183526A1, “FUNGICIDAL COMPOSITIONS” (Dow AgroSciences LLC, priority 2014, published 2016).

Legend:
[1] = estimated from a survey of the literature; miscible means totally soluble in water in all amounts; cited from earlier work
[2] = Solubility of a mixture of Compound A and prothioconazole in benzyl acetate/AMD810 blends at 10° C. (HPLC); assay type: physicochemical; settings: both actives saturated
Method: A study of the Compound A and prothioconazole solubility in blends of benzyl acetate/AMD810 was conducted. To each solvent blend both actives were added until each was saturated and the resulting mixtures were then stored at 10° C. until equilibrium was obtained. Aliquots of the supernatant layer were taken from each sample, filtered (0.45 μm mesh) and analyzed by HPLC to determine the solution concentration of each active in the blends.

[3] = Solubility of Compound A and prothioconazole in benzyl acetate/AMD810/cyclohexanone blends at 10° C.; assay type: physicochemical; settings: one week
Method: A total of 20 g of each solvent blend was prepared per sample. For example, one of the blends (Blend 4) was prepared by combining cyclohexanone 0.2 (4 g), benzyl acetate 0.2 (4 g) and AMD810 0.6 (12 g). To Blend 4 were added amounts of Compound A and prothioconazole technical active ingredients to achieve saturation concentrations of each. The samples were then stored at 10° C. for one week and then were analysed for soluble active ingredient content.

[4] = Approximate relative solubility of active ingredients in organic solvents at ambient temperature; assay type: physicochemical

For `CC(=O)OCc1ccccc1` [Benzyl acetate], the “Solubility of Solvent in Water” value [1] is given as 1000 to 3100 µg/mL.

In the case of `CCCCOC(=O)C(C)O` (stereo not shown) [Butyl lactate], the “Solubility of Solvent in Water” value [1] is listed as 42000 µg/mL.

In the case of `O=C1CCCCC1` [Cyclohexanone], the “Solubility of Solvent in Water” value [1] is listed as 8600 to 25000 µg/mL.

In the case of `CCCCOC(=O)OCCCC` [Di-n-butyl carbonate], the “Solubility of Solvent in Water” value [1] is given as 820 µg/mL.

In the case of `CCOCCOCCO` [Diethylene glycol monoethyl ether], the “Solubility of Solvent in Water” value [1] is given as “Miscible”.

In the case of `CCOCCOCCOC(C)=O` [Ethyl Diglycol Acetate], the “Solubility of Solvent in Water” value [1] is listed as “Miscible”.

In the case of `CC(C)OC(=O)c1ccccc1` [Isopropyl benzoate], the “Solubility of Solvent in Water” value [1] is given as 640 µg/mL.

For `CCCCCCCC/C=C\CCCCCCCC(=O)OC` [Methyl oleate], the “Solubility of Solvent in Water” value [1] is given as 1.1 µg/mL.

In the case of `COC(=O)c1ccccc1O` [Methyl salicylate], the “Solubility of Solvent in Water” value [1] is given as less than 5000 µg/mL.

For `COC(=O)C(C)CCC(=O)N(C)C` (stereo not shown) [Methyl-5-(Dimethylamino)-2-Methyl-5-Oxopentanoate], the “Solubility of Solvent in Water” value [1] is given as 79000 µg/mL.

For `COC(=O)CCC(C)C(=O)OC` (stereo not shown) [Pentanedioic acid, 2-methyl-1,5-dimethyl ester], the “Solubility of Solvent in Water” value [1] is listed as 25000 µg/mL.

In the case of `CC1COC(=O)O1` (stereo not shown) [Propylene carbonate], the “Solubility of Solvent in Water” value [1] is listed as 17500 µg/mL.

In the case of `OC(Cc1ccccc1Cl)(Cn1nc[nH]c1=S)C1(Cl)CC1` (stereo not shown) [Prothioconazole, prothioconazole], the “Prothioconazole Solubility at 10° C.” value ([2]; benzyl acetate 0 wt % in blend with AMD810) was 31.3 % w/w, the “Prothioconazole Solubility at 10° C.” value ([2]; benzyl acetate 20 wt % in blend with AMD810) was 32.3 % w/w and the “Prothioconazole Solubility at 10° C.” value ([2]; benzyl acetate 40 wt % in blend with AMD810) was 33.1 % w/w. For the same compound, the “Prothioconazole Solubility at 10° C.” value ([2]; benzyl acetate 60 wt % in blend with AMD810) was 32.1 % w/w, the “Prothioconazole Solubility at 10° C.” value ([2]; benzyl acetate 80 wt % in blend with AMD810) was 26.6 % w/w and the “Prothioconazole Solubility at 10° C.” value ([2]; benzyl acetate 100 wt % in blend with AMD810) was 16.2 % w/w. For the same compound, the “Prothioconazole Solubility @ 10° C.” value ([3]; Blend 1: cyclohexanone 0/benzyl acetate 0/AMD810 1 (weight fraction)) was 34.3 % w/w, the “Prothioconazole Solubility @ 10° C.” value ([3]; Blend 2: cyclohexanone 0/benzyl acetate 0.2/AMD810 0.8 (weight fraction)) was 32.3 % w/w and the “Prothioconazole Solubility @ 10° C.” value ([3]; Blend 3: cyclohexanone 0.2/benzyl acetate 0/AMD810 0.8 (weight fraction)) was 33.9 % w/w. The “Prothioconazole Solubility @ 10° C.” value ([3]; Blend 4: cyclohexanone 0.2/benzyl acetate 0.2/AMD810 0.6 (weight fraction)) was 32.9 % w/w, the “Prothioconazole Solubility @ 10° C.” value ([3]; Blend 5: cyclohexanone 0/benzyl acetate 0.4/AMD810 0.6 (weight fraction)) was 33.1 % w/w and the “Prothioconazole Solubility @ 10° C.” value ([3]; Blend 6: cyclohexanone 0.2/benzyl acetate 0.4/AMD810 0.4 (weight fraction)) was 32.1 % w/w. The “Prothioconazole Solubility @ 10° C.” value ([3]; Blend 7: cyclohexanone 0/benzyl acetate 0.6/AMD810 0.4 (weight fraction)) was 32.1 % w/w, the “Prothioconazole Solubility @ 10° C.” value ([3]; Blend 8: cyclohexanone 0/benzyl acetate 0.8/AMD810 0.2 (weight fraction)) was 26.6 % w/w and the “Prothioconazole Solubility @ 10° C.” value ([3]; Blend 10: cyclohexanone 0.2/benzyl acetate 0.6/AMD810 0.2 (weight fraction)) was 29.9 % w/w. For the same compound, the “Prothioconazole Solubility @ 10° C.” value ([3]; Blend 11: cyclohexanone 0/benzyl acetate 1/AMD810 0 (weight fraction)) was 16.2 % w/w, the “Prothioconazole Solubility @ 10° C.” value ([3]; Blend 12: cyclohexanone 0.2/benzyl acetate 0.8/AMD810 0 (weight fraction)) was 18.4 % w/w and the “Relative Solubility of Prothioconazole” value ([4]; in 2-ethylhexanol) was “Very Low (<10)”. The “Relative Solubility of Prothioconazole” value ([4]; in 2-ethylhexyl benzoate) was “Very Low (<10)”, the “Relative Solubility of Prothioconazole” value ([4]; in 2-ethylhexyl lactate) was “Medium (>20 to 30)” and the “Relative Solubility of Prothioconazole” value ([4]; in 2-heptanone) was “Low (10 to 20)”. For the same compound, the “Relative Solubility of Prothioconazole” value ([4]; in Alkyl naphthalene mixture) was “Very Low (<10)”, the “Relative Solubility of Prothioconazole” value ([4]; in Benzyl acetate) was “Low (10 to 20)” and the “Relative Solubility of Prothioconazole” value ([4]; in Benzyl alcohol) was “Medium (>20 to 30)”. The “Relative Solubility of Prothioconazole” value ([4]; in Butyl benzoate) was “Low (10 to 20)”, the “Relative Solubility of Prothioconazole” value ([4]; in Butyl lactate) was “Low (10 to 20)” and the “Relative Solubility of Prothioconazole” value ([4]; in Butylene carbonate) was “Very Low (<10)”. For the same compound, the “Relative Solubility of Prothioconazole” value ([4]; in Cyclohexanone) was “High (>30)”, the “Relative Solubility of Prothioconazole” value ([4]; in Di-n-butyl carbonate) was “Very Low (<10)” and the “Relative Solubility of Prothioconazole” value ([4]; in Diethylene glycol monoethyl ether) was “High (>30)”. For the same compound, the “Relative Solubility of Prothioconazole” value ([4]; in Ethyl Diglycol Acetate) was “Very Low (<10)”, the “Relative Solubility of Prothioconazole” value ([4]; in Isoparaffin) was “Very Low (<10)” and the “Relative Solubility of Prothioconazole” value ([4]; in Isopropyl benzoate) was “Very Low (<10)”. The “Relative Solubility of Prothioconazole” value ([4]; in Methyl oleate) was “Very Low (<10)”, the “Relative Solubility of Prothioconazole” value ([4]; in Methyl salicylate) was “Very Low (<10)” and the “Relative Solubility of Prothioconazole” value ([4]; in Methyl-5-(Dimethylamino)-2-Methyl-5-Oxopentanoate) was “High (>30)”. For the same compound, the “Relative Solubility of Prothioconazole” value ([4]; in N,N dimethyl fatty acid amides) was “High (>30)”, the “Relative Solubility of Prothioconazole” value ([4]; in N-formyl morpholine and propylene carbonate) was “Medium (>20 to 30)” and the “Relative Solubility of Prothioconazole” value ([4]; in Pentanedioic acid, 2-methyl-1, 5-dimethyl ester) was “Low (10 to 20)”. The “Relative Solubility of Prothioconazole” value ([4]; in Polyethylene glycol) was “Medium (>20 to 30)”, the “Relative Solubility of Prothioconazole” value ([4]; in Polypropylene glycol) was “Low (10 to 20)” and the “Relative Solubility of Prothioconazole” value ([4]; in Propylene carbonate) was “Very Low (<10)”. For the same compound, the “Relative Solubility of Prothioconazole” value ([4]; in Soybean oil) was “Very Low (<10)”, the “Relative Solubility of Prothioconazole” value ([4]; in Sulfolane) was “Low (10 to 20)” and the “Relative Solubility of Prothioconazole” value ([4]; in Tributoxyethyl phosphate) was “High (>30)”. The “Relative Solubility of Prothioconazole” value ([4]; in dimethyl esters of adipic, glutaric and succinic acids) was “Low (10 to 20)”.
